Data: patent US10800752B2, “Substituted naphtho[2,3-b]furans as water-soluble prodrugs for preventing and/or treating cancer” (BOSTON BIOMEDICAL, INC., priority 2015, dated 2020)

Experiments:
[1] = Evaluation of a conversion rate to 2-acetylnaphtho[2,3-b]furan-4,9-dione in CD1 mouse plasma; assay type: in vitro ADME; settings: CD1 mouse plasma, 1 umol/L, 37° C., incubation time 120 min
Method: (§1) For test compounds, the decrease rate of the test compounds and the conversion rate thereof to 2-acetylnaphtho[2,3-b]furan-4,9-dione in human plasma, CD1 mouse plasma, and pH 7.4 phosphate buffer solution were measured.
(§2) Test compounds were incubated at the concentration of 1 umol/L in human plasma (cat. no. 12250210, COSMO BIO), CD1 mouse plasma (cat. no. AP3054, KAC), and phosphate buffer solution at 37° C., and removed at predetermined times (0, 5, 10, 30, 60, and 120 minutes). After protein-removing treatment was performed, they are analyzed with LC-MS. It should be noted that the protein-removing treatment used acetonitrile containing: 10% volume of 1 mol/L hydrochloric acid; 1% volume of 46% citric acid; and phenytoin as an internal standard.
(§3) The measurement condition of LC-MS is as described below. LC-MS condition column: Kinetex 2.6 u PFP 100 A 50×2.1 mm Column temperature: 40° C.
(§4) Mobile phase: A: 0.1% formic acid-containing water
(§5) • B: 0.1% formic acid-containing acetonitrile A/B(min): 95/5(0)→5/95(3)→5/95(4)→95/5(4.1)→95/5(6) Flow rate: 0.4 mL/min Detection: ESI (positive mode) Injection volume: 10 uL
Measurement values are calculated from the peak area ratio in LC-MS between an internal standard material, phenytoin and an active form, 2-acetylnaphtho[2,3-b]furan-4,9-dione, and are expressed in %.
In the same way as Example 6, the incubation time was set as 120 minutes later, and the conversion rate of each of various test compounds to 2-acetylnaphtho[2,3-b]furan-4,9-dione in human plasma, CD1 mouse plasma, and pH 7.4 phosphate buffer solution was measured. A series of the present compounds were confirmed to be converted to 2-acetylnaphtho[2,3-b]furan-4,9-dione in pH 7.4 phosphate buffer solution in addition to human plasma and CD1 mouse plasma. Therefore, a series of the test compounds of the present invention were confirmed to be converted to the activated form via a route other than an enzymatic conversion.

[2] = Evaluation of a conversion rate to 2-acetylnaphtho[2,3-b]furan-4,9-dione in pH 7.4 phosphate buffer solution; assay type: physicochemical; settings: Phosphate buffer solution (pH 7.4), 1 umol/L, 37° C., incubation time 120 min
How it was run: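 Compounds at 1 umol/L were incubated at 37° C in human plasma, CD1 mouse plasma or pH 7.4 phosphate buffer, sampled up to 120 minutes, acid/acetonitrile-deproteinised and analysed by LC-MS (ESI positive). Conversion (%) derived from the peak area ratio of the active form to phenytoin internal standard.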

[3] = Evaluation of a conversion rate to 2-acetylnaphtho[2,3-b]furan-4,9-dione in human plasma; assay type: in vitro ADME; settings: Human plasma, 1 umol/L, 37° C., incubation time 120 min
Method: as §1, §2, §3, §4, §5
In the same way as Example 6, the incubation time was set as 120 minutes later, and the conversion rate of each of various test compounds to 2-acetylnaphtho[2,3-b]furan-4,9-dione in human plasma, CD1 mouse plasma, and pH 7.4 phosphate buffer solution was measured.

Solubility test = settings: 50 mmol/L glycine buffer solution (pH 2.0), room temperature, 24 hours shaking
Method: A water-soluble prodrug was added into 50 mmol/L glycine buffer solution (pH 2.0). After shaking at room temperature for 24 hours, the mixture was filtered through a membrane filter, and then the filtrate was measured with HPLC.
The measurement condition of HPLC is as described below. HPLC condition column: Acquity UPLC BEH C18, 1.7 um, 50×2.1 mm
Mobile phase: A: 0.1% trifluoroacetic acid-containing water

Row | Compound | % Measurement value (conversion rate to 2-acetylnaphtho[2,3-b]furan-4,9-dione) [1] [%] | % Measurement value (conversion rate to 2-acetylnaphtho[2,3-b]furan-4,9-dione) [2] [%] | % Measurement value (conversion rate to 2-acetylnaphtho[2,3-b]furan-4,9-dione) [3] [%] | Solubility in pH 2.0 buffer solution (Solubility test) [mg/mL]
1 | CC(=O)c1cc2c(OC(=O)NCCCNCC(=O)O)c3ccccc3c(OC(=O)NCCCNCC(=O)O)c2o1.Cl.Cl [Example 40] | 86 | 50 | 89 | >5.0
2 | CC(=O)c1cc2c(OC(=O)NCCNCC(=O)NCC(=O)O)c3ccccc3c(OC(=O)NCCNCC(=O)NCC(=O)O)c2o1.Cl.Cl [Example 41] | 81 | 52 | 86 | >5.0
3 | CC(=O)c1cc2c(OC(=O)NCCNCC(=O)O)c3ccccc3c(O)c2o1.Cl [Example 71] | 68 | 70 | 61 | 0.1
4 | CC(=O)c1cc2c(OC(=O)NCCCCCN)c3ccccc3c(O)c2o1.Cl [Example 72] | 42 | 38 | 53 | 2.4
5 | CC(=O)c1cc2c(OC(=O)NCCCCCCCN)c3ccccc3c(O)c2o1.Cl [Example 73] | 63 | 66 | 88 | 0.1
6 | CC(=O)c1cc2c(OC(=O)NCCCCN)c3ccccc3c(O)c2o1.Cl [Example 74] | 62 | 82 | 70 | 4.9
7 | CC(=O)c1cc2c(OC(=O)NCCCCCCCCN)c3ccccc3c(O)c2o1.Cl [Example 75] | 60 | 45 | 79 | 0.1
8 | CC(=O)c1cc2c(OC(=O)NCCCCCNCC(=O)O)c3ccccc3c(O)c2o1.Cl [Example 76] | 71 | 57 | 68 | 0.4
9 | CC(=O)c1cc2c(OC(=O)NCCCNCC(=O)O)c3ccccc3c(O)c2o1.Cl [Example 77] | 70 | 66 | 68 | 0.5
10 | CC(=O)c1cc2c(O)c3ccccc3c(OC(=O)NCCNCC(=O)O)c2o1.Cl [Example 78] | 66 | 43 | 54 | 0.1
11 | CC(=O)c1cc2c(O)c3ccccc3c(OC(=O)NCCNCC(=O)NCC(=O)O)c2o1.Cl [Example 83] | 67 | 31 | 67 | >5.0
